From PubChem BioAssay (NCI)
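Dose response: 5 concentrations. Exposure: 48 h. Format: 96-well plates. Endpoint: linear interpolation; highest concentration if not reached. GI50 is the concentration that inhibits growth by half. Definition used: TGI = concentration required for complete inhibition of growth.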

What was measured:
Test in all cases: inhibition of tumour cell growth, NCI panel, 48 h
HCT-15 colon = test system: HCT-15 colon
HT29 colon = test system: HT29 colon
LOX IMVI melanoma = test system: LOX IMVI melanoma
MOLT-4 leukemia = test system: MOLT-4 leukemia
OVCAR-3 ovarian = test system: OVCAR-3 ovarian
OVCAR-4 ovarian = test system: OVCAR-4 ovarian
RXF 393 renal = test system: RXF 393 renal
MDA-MB-435 = test system: MDA-MB-435
NCI/ADR-RES ovarian = test system: NCI/ADR-RES ovarian
BT-549 breast = test system: BT-549 breast

| SMILES | TGI (HCT-15 colon) [µM] | TGI (HT29 colon) [µM] | TGI (LOX IMVI melanoma) [µM] | TGI (MOLT-4 leukemia) [µM] | TGI (OVCAR-3 ovarian) [µM] | TGI (OVCAR-4 ovarian) [µM] | TGI (RXF 393 renal) [µM] | GI50 (HCT-15 colon) [µM] | GI50 (HT29 colon) [µM] | GI50 (LOX IMVI melanoma) [µM] | GI50 (MDA-MB-435) [µM] | TGI (MDA-MB-435) [µM] | GI50 (MOLT-4 leukemia) [µM] | GI50 (NCI/ADR-RES ovarian) [µM] | TGI (NCI/ADR-RES ovarian) [µM] | GI50 (OVCAR-3 ovarian) [µM] | GI50 (OVCAR-4 ovarian) [µM] | GI50 (BT-549 breast) [µM] | TGI (BT-549 breast) [µM] | GI50 (RXF 393 renal) [µM] |
| --- | --- | --- | --- | --- | --- | --- | --- | --- | --- | --- | --- | --- | --- | --- | --- | --- | --- | --- | --- | --- |
| COC(=O)C12CC3CC(CC(C(=O)O)(C3)C1)C2 | > 100 | > 100 | > 100 | > 100 | > 100 | > 100 | – | – | – | – | – | – | – | – | – | – | – | – | – | – |
| O=C(CCc1nc(=S)[nH][nH]1)Nc1ccccc1Cl | 41.3 | > 100 | > 100 | > 100 | > 100 | > 100 | > 100 | – | – | – | – | – | – | – | – | – | – | – | – | – |
| CCCC1=C(CC)C(C(=O)Nc2c(C)cccc2C)=NC(S)N1 (stereo not given) | > 100 | > 100 | – | > 100 | > 100 | > 100 | – | – | – | – | – | – | – | – | – | – | – | – | – | – |
| CNC(=S)/N=C(\N)N(C)C | > 100 | > 100 | > 100 | > 100 | > 100 | > 10 | > 100 | – | – | – | – | – | – | – | – | – | – | – | – | – |
| COc1cc2c3c(n(CCCN)c(=O)c2cc1OC)-c1ccc(C#N)cc1C3=O | 30.6 | 29.1 | 30 | 3.49 | 39.9 | 41.3 | – | 15.4 | 8.52 | 13.6 | 18.6 | 39.9 | 0.748 | 48 | > 100 | 19.1 | 20 | – | – | – |
| O=C(c1cccc2ccccc12)N1CCC(C2CCN(C(=O)c3cccc4ccccc34)CC2)CC1 | > 100 | > 100 | > 100 | > 100 | > 100 | – | > 100 | – | – | – | – | – | – | – | – | – | – | – | – | – |
| c1ccc(C2N3CCCCC3[C@@H]3c4[nH]c5ccccc5c4CCN23)nc1 (stereo not given in full) | > 100 | > 100 | – | > 100 | > 100 | > 100 | > 100 | – | – | – | – | – | – | – | – | – | – | – | – | – |
| CCOC(=O)C1CCN(S(=O)(=O)/N=C2/NC(=O)NC2=C(Cl)Cl)CC1 | 3.56 | 4.3 | – | 4.46 | 3.29 | – | 3.06 | 1.82 | 2.2 | – | 1.93 | 4.66 | 1.88 | 4.36 | 41.4 | 1.77 | – | 1.68 | 3.65 | 1.61 |
| Nc1ccccc1/C(O)=C1/CCOC1=O | – | > 100 | – | > 100 | > 100 | > 100 | – | – | – | – | – | – | – | – | – | – | – | – | – | – |
| O=C1C2C3C=C4c5ccccc5N(c5ccccc5)C4(C2C(=O)N1c1ccc([N+](=O)[O-])cc1)[C@H]1C(=O)N(c2ccc([N+](=O)[O-])cc2)C(=O)[C@@H]31 (stereo not given in full) | > 100 | > 100 | > 100 | > 100 | > 100 | > 100 | > 100 | – | – | – | – | – | – | – | – | – | – | – | – | – |
| COc1ccc2c3c([nH]c2c1[N+](=O)[O-])C(C)N(C)CC3 (stereo not given) | > 100 | 42.6 | – | > 100 | > 100 | > 100 | – | – | – | – | – | – | – | – | – | – | – | – | – | – |
| CCOC(=O)CCC(=O)C1c2cccc(O)c2C(=O)c2c(O)cc(C)cc21 (stereo not given) | 2.25 | 7.17 | 1.97 | 6.76 | 1.18 | 1.76 | 1.25 | – | – | – | – | – | – | – | – | – | – | – | – | – |
| CCCN(CCC)C(=O)c1c([N+](=O)[O-])cc(C(F)(F)F)cc1[N+](=O)[O-] | > 100 | > 100 | > 100 | > 100 | 34.8 | 32.9 | 79.7 | – | – | – | – | – | – | – | – | – | – | – | – | – |
| Cc1[nH]c(=O)nc2[nH][nH]c(=O)c12 | > 100 | > 100 | > 100 | > 100 | > 100 | > 100 | > 100 | – | – | – | – | – | – | – | – | – | – | – | – | – |
| COc1ccc(-c2cc(-c3cc(C)cc(Br)c3O)no2)cc1 | > 100 | > 100 | > 100 | > 100 | 23.9 | 13.2 | – | – | – | – | – | > 100 | – | – | > 100 | – | – | – | 57.1 | – |
| COc1ccc(C(=O)c2cc(C)c(OC)c(C)c2)c(OC)c1O | > 100 | > 55.6 | > 100 | > 100 | – | > 100 | > 100 | 0.0214 | 3.73 | 0.0381 | – | – | 0.0448 | 0.0257 | – | 0.0374 | 0.415 | 0.0272 | > 62 | 0.163 |
| CN(C)CCC1(C2=CCCC2)CC/C(=C\c2ccc(Cl)cc2)C1=O (stereo not given) | 16.6 | 8.35 | 23.1 | 6.02 | 26.8 | 21.5 | 10.9 | – | – | – | – | – | – | – | – | – | – | – | – | – |
| COC(=O)[C@@]12C(=O)C=CC(=O)C1C1C(=CC2C)OC2OC3(CCCCC3)OC21 (stereo not given in full) | 31.1 | 44.9 | 42.8 | 37.5 | 33.8 | 30.3 | – | – | – | – | – | – | – | – | – | – | – | – | – | – |
| Cn1cc(C2(C)CC(C)(C)c3c2n(C)c2ccccc32)c2ccccc21 (stereo not given) | > 100 | > 100 | > 100 | > 100 | > 100 | – | > 100 | – | – | – | – | – | – | – | – | – | – | – | – | – |
| CCCCNC1CCCCC[C@H]1O (stereo not given in full) | – | > 100 | > 100 | > 100 | > 100 | > 100 | > 100 | – | – | – | – | – | – | – | – | – | – | – | – | – |
| COc1ccc(C(=O)c2cc(OC)c(OC)c(OC)c2)cc1/C=C/C(=O)c1ccc(F)cc1 | 6.96 | 5.63 | – | 29.3 | 15.5 | 33.6 | 23.3 | 2.14 | 2.44 | – | 2.88 | 13.6 | 3.24 | 3.69 | 73.2 | 4.83 | 4.55 | 3.27 | 13.1 | 7.29 |
| COc1ccc(C(=O)c2cc(C)c(OC)c(C)c2)cc1OC(=O)CCl | > 100 | 14.8 | > 100 | > 100 | 1.08 | > 100 | – | < 0.01 | 1.06 | < 0.01 | < 0.01 | < 0.01 | < 0.0158 | < 0.01 | > 63.5 | < 0.01 | 0.866 | < 0.01 | 40.5 | – |
| COC(=O)C(CC(=O)Nc1ccc(C)cc1)C(=O)C(=O)Nc1c(C(C)C)cccc1C(C)C (stereo not given) | > 100 | – | > 100 | > 100 | – | > 100 | > 100 | – | – | – | – | – | – | – | – | – | – | – | – | – |
| CN(Cc1ccccc1)C(=O)c1ccccc1C(=O)O | > 100 | > 100 | > 100 | > 100 | > 100 | > 100 | > 100 | – | – | – | – | – | – | – | – | – | – | – | – | – |
| c1cnn(CN(Cn2cccn2)Cn2cccn2)c1 | > 100 | – | > 100 | > 100 | > 100 | > 100 | > 100 | – | – | – | – | – | – | – | – | – | – | – | – | – |
